Key:
Assay type in all cases: cell-based, human
[1] = system: BRAF-mutated resistant melanoma cell lines; assay: Induction of apoptosis and cell death by PSVue 643 staining in acquired drug resistant melanoma cell lines
Protocol: Adherent melanoma cells were harvested with 0.05% Trypsin-EDTA and were washed once with 1×DPBS. Cells were labeled with CellTrace™ Violet according to the manufacturer's protocol and were allowed to adhere to tissue culture plates overnight following the drug treatment. At indicated time points following the drug treatment, floating and adherent cells were pooled, washed with Hank's Buffered Salt Solution (HBSS) and then stained with CellROX Deep Red at 2.5 μM or MitoTracer Red at 0.25 μM for 1 h in a 37° C. humidified incubator supplied with 5% CO2. Cells were then pelleted, washed with DPBS, and stained with PSVue® 643 at 5 μM diluted in TES buffer for 5 min in the dark. Cells were then immediately subjected to FACS analysis using a BD LSR II flow cytometer and at least 5,000 cells per sample were acquired.
Labeling cells with Propidium Iodide and PSVue—Following centrifugation, cells were resuspended in 0.1 ml 1×PBS, co-stained with propidium iodide at 1 μg/ml and PSVue® 643 at 5 μM, and then stained with PSVue® 643 at 5 μM alone. Cell suspensions were kept in the dark at room temperature for 5 min. 0.2 ml 1×PBS supplemented with 10% FBS was added to each cell suspension and cells were immediately analyzed by BD LSRII.
Separation of live cells from dead cells including early apoptotic cells—Based on the fluorescence of PSVue 643, cells are separated into 2 subpopulations, live cells (PSVue 643Neg) and dead cells including early apoptotic cells (PSVue 643Pos).

WM9 melanoma cells = assay: Induction of apoptosis and cell death by PSVue 643 staining in WM9 melanoma cells; settings: WM9, 72 h
Protocol: Adherent melanoma cells were harvested with 0.05% Trypsin-EDTA and were washed once with 1×DPBS. Cells were labeled with CellTrace™ Violet according to the manufacturer's protocol and were allowed to adhere to tissue culture plates overnight following the drug treatment. […] Cells were then immediately subjected to FACS analysis using a BD LSR II flow cytometer and at least 5,000 cells per sample were acquired.
Cell suspensions were kept in the dark at room temperature for 5 min. 0.2 ml 1×PBS supplemented with 10% FBS was added to each cell suspension and cells were immediately analyzed by BD LSRII.
Briefly, autophagic flux was assessed by FACS analysis of WM9 cells expressing the mCherry-eGFPLC3B construct that were transfected with the indicated siRNAs targeting autophagy and ER stress response and treated for 72 h with DMSO or the combination of PLX4720 at 10 μM and PD0325901 at 1 μM. The data represent the average of 2 biological replicates. […] Autophagic flux was assessed by FACS analysis of WM9 cells expressing the mCherry-eGFPLC3B construct treated for 72 h with Gamitrinib at 1 μM or Spautin-1 at 10 μM in combination with PLX4720 at 10 μM/PD0325901 at 1 μM. Cells treated with DMSO were used as the control for setting up the gate.

autophagic flux = assay: Autophagic flux in WM9 cells expressing mCherry-eGFP-LC3B; settings: WM9, 72 h, Gamitrinib 1 μM or Spautin-1 10 μM combined with PLX4720 10 μM/PD0325901 1 μM
Protocol: WM9 cells stably expressing pLVO-Puro-mCherry-eGFP-LC3 were analyzed with a BD LSR II flow cytometer. Fluorescence of mCherry and eGFP was recorded to derive the ratio of mCherryheight over eGFP-height. This ratio indicates the autophagic flux.
Briefly, autophagic flux was assessed by FACS analysis of WM9 cells expressing the mCherry-eGFPLC3B construct that were transfected with the indicated siRNAs targeting autophagy and ER stress response and treated for 72 h with DMSO or the combination of PLX4720 at 10 μM and PD0325901 at 1 μM. The data represent the average of 2 biological replicates. Induction of apoptosis and cell death was assessed by PSVue 643 staining in WM9 cells expressing the mCherry-eGFP-LC3B construct transfected with the indicated siRNAs targeting autophagy and ER stress response and treated for 72 h with DMSO or the combination of PLX4720 at 10 μM and PD0325901 at 1 μM. Autophagic flux was assessed by FACS analysis of WM9 cells expressing the mCherry-eGFPLC3B construct treated for 72 h with Gamitrinib at 1 μM or Spautin-1 at 10 μM in combination with PLX4720 at 10 μM/PD0325901 at 1 μM. Cells treated with DMSO were used as the control for setting up the gate. Induction of apoptosis and cell death was assessed by PSVue 643 staining in WM9 cells treated for 72 h with Gamitrinib at 1 μM or Spautin-1 at 10 μM in combination with PLX4720 at 10 μM/PD0325901 at 1 μM. […]

[2] = system: HKI, HKII, PDHE1, PDK1, PDK2, LDHA, PKM1, GLUT1 and GLUT3; assay: Expression of glycolysis regulators in WM9 cells (qRT-PCR, immunoblot); settings: WM9, Gamitrinib combined with PLX4720
Protocol: (§1) One μg total mRNA was reverse transcribed using a Maxima First Strand cDNA Synthesis Kit for qRT-PCR (Thermo Fisher). Fast SYBR® Green Master Mix (Life Technologies) was used with cDNA template and primers to evaluate the expression of target genes and GAPDH. Primers used were purchased from Integrated DNA Technologies. Amplifications were performed using an Applied Biosystems® 7500 Real-Time PCR System (Life Technologies). All experiments were performed in triplicate. Expression ratios of controls were normalized to 1. Please see Extended Experimental Procedures for the list of PCR primer sequences.
(§2) Cells were washed with ice-cold PBS containing 100 μM Na3VO4 and scraped off culture dishes. After centrifugation, cell pellets were lysed in buffer containing 10 mM Tris-HCl, pH 7.8, 150 mM NaCl, 1 mM EDTA, 1% Nonidet P-40, 1 mM Na3VO4 and protease inhibitors (Roche complete protease inhibitor tablets). Lysates were cleared by micro-centrifugation and protein concentrations were determined with Protein Assay Dye Reagent Concentrate (Bio-Rad). For western blots, 25 μg of each lysate were run on 15-well 10% or 12% SDS-PAGE gels and transferred onto nitrocellulose membranes using a dye fast Trans-BlotR Turbo™ transfer system (Bio-Rad). […]

SOD2 = SOD2 expression in WM9 cells (qRT-PCR, immunoblot); settings: WM9, 72 h, Gamitrinib 1 μM with MAPK pathway inhibitors
Protocol: as §1, §2

Gamitrinib
cell death in combination therapy resistant (CR) cell line ([1]; 1 CR cell line (WM9 CR), Gamitrinib 1 and 2.5 μM, 48 h): significantly induced cell death | resistant cell lines in which apoptosis and cell death was significantly induced ([1]; 23 resistant cell lines, 2.5 μM Gamitrinib, 72 hours): 18 of 23 | BRAF inhibitor resistant (BR) cell lines in which cell death was significantly induced ([1]; BR cell lines, PLX4720 10 μM plus Gamitrinib 2.5 μM, 48 h): 7 out of 9 | induction of apoptosis and cell death (WM9 melanoma cells; Gamitrinib 1 or 2.5 μM vs 0 or 0.5 μM, with PLX4720 10 μM and PD0325901 1 μM): more remarkable induction of apoptosis and cell death | apoptosis and cell death, compared with other inhibitors of the drug screen (WM9 melanoma cells; titrated doses combined with MAPK pathway inhibitors (PLX4720 10 μM, PD0325901 1 μM)): greater increase in apoptosis and cell death | autophagic flux (autophagic flux): decreased the autophagic flux | expression of key regulators of aerobic glycolysis, mRNA and protein [2]: substantially down-regulated | SOD2 expression compared to MAPK pathway inhibitors alone, mRNA and protein (SOD2): up-regulation of SOD2

Source: US20240207202A1, “COMBINATION THERAPIES TARGETING MITOCHONDRIAL BIOGENESIS FOR CANCER THERAPY” (The Wistar Institute of Anatomy and Biology, priority 2015, published 2024)
